Source: patent US20220146526A1, “METHOD FOR EVALUATING SAMPLE, ANALYSIS METHOD, METHOD FOR DETECTING DEGRADED SAMPLE, MARKER FOR DETECTING DEGRADED BLOOD PLASMA SAMPLE, AND MARKER FOR DETECTING DEGRADED SERUM SAMPLE” (SHIMADZU CORPORATION, priority 2019, published 2022)

Key:
Format in all cases: physicochemical, human
[1] = GC/MS of blood plasma sample: time from blood collection to centrifugation (Table A); conditions: for Rate of increase or decrease: detection intensity relative to 1 at 15 minutes; for Rate of increase or decrease / Increase or decrease: blood collection to centrifugation; for Increase or decrease: detection intensity; for Rate of increase or decrease (second value, decrease) / Rate of increase or decrease (first value, increase): different from individual to individual, relative to 1 at 15 minutes, collection to centrifugation; for Rate of increase or decrease (second value, decrease): individuals with decrease; for Rate of increase or decrease (first value, increase): individuals with increase
Outline: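 EDTA blood from a healthy subject was cooled at 4° C, centrifuged at 4° C, 3000 rpm, 15 minutes, and plasma was frozen. After methoxymation and trimethylsilylation, samples ran on GC/MS (BPX5 column, 60-330° C gradient, electron ionization, MRM). Intensity is relative to 15 minutes from collection to centrifugation.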

[2] = GC/MS of blood plasma sample: time from blood collection to cooling of blood (Table B); design: key to Rate of increase or decrease / Rate of increase or decrease (first value, increase): detection intensity relative to 1 at cooling time ≤1 min; conditions: for Increase or decrease: detection intensity, blood collection to cooling 5 minutes or more vs 1 minute or less; for Rate of increase or decrease (second value, decrease) / Rate of increase or decrease (first value, increase): different from individual to individual, relative to 1 at 1 minute or less, collection to cooling 5 minutes; for Rate of increase or decrease (second value, decrease): individuals with decrease; for Rate of increase or decrease (first value, increase): individuals with increase; for Rate of increase or decrease: detection intensity relative to 1 at 1 minute or less, blood collection to cooling 5 minutes
Procedure: At room temperature, 5 mL of blood from a healthy subject was taken into a blood-collecting vessel containing EDTA, and the blood-collecting vessel was inverted for mixing, then cooled, and allowed to stand at 4° C. Here, in order to investigate how the detection intensity of molecules contained in the sample was affected in a case where the time to cooling was set to 5 minutes or more as compared to that in a case where the time to cooling was set to 1 minute or less, preparations were performed under both the former condition and the latter condition. After standing, the blood sample was subjected to centrifugation under a condition of 4° C., 3000 rpm, and 15 minutes. […] After centrifugation, the blood-collecting vessel was left to stand at room temperature for 30 minutes, and the blood plasma was isolated during this 30 minutes. The obtained blood plasma sample was frozen and stored. Here, in order to investigate how the detection intensity of molecules contained in the sample was affected in cases where freezing and thawing was performed 4 times, 6 times, and 10 times after freezing as compared to that in a case where freezing and thawing was performed 2 times after freezing, freezing and thawing was performed under the respective conditions of 2, 4, 6, and 10 times.
Frozen blood plasma samples and serum samples were subjected to GC/MS or LC/MS. In GC/MS, the blood plasma samples and serum samples were subjected to methoxymation and trimethylsilylation and then introduced to GC-MS.
GC/MS was conducted using GCMS·TQ8040 (Shimadzu Corporation) that was a GC·MS equipped with AOC·20i (Shimadzu Corporation) as an autosampler.
Column: BPX5 (inner diameter of 0.25 mm, length of 30 m, and film thickness of 0.25 μm) (SGE)
Column temperature: maintained at 60° C. for 2 minutes, then raised at 15° C./min, and maintained at 330° C. for 3 minutes.
Inlet temperature: 250° C.
Carrier gas control mode: constant linear velocity of 39.0 cm/sec
Sample introduction method: split (split ratio of 30:1) Injection volume: 1 μL
Ionization method: electron ionization
Ionization current: 60 μA
Interface temperature: 280° C.
Ion source temperature: 200° C.
Mode: multiple reaction monitoring (MRM)
Table B presents compounds of which the detection intensity increased or decreased by 30% or more in a case where the time from blood collection to cooling of blood, when a blood plasma sample was analyzed by GC/MS, was set to 5 minutes or more as compared to that in a case where the time was set to 1 minute or less. The rate of increase or decrease in Table B is the value of detection intensity relative to 1 that is the detection intensity in a case where the time from blood collection to cooling is set to 1 minute or less.

[3] = GC/MS of blood plasma sample: number of times of freezing and thawing (Table C); conditions: for Increase or decrease: detection intensity; for Rate of increase or decrease (second value, decrease) / Rate of increase or decrease (first value, increase): different from individual to individual, relative to 1 at 2 times; for Rate of increase or decrease (second value, decrease): individuals with decrease; for Rate of increase or decrease (first value, increase): individuals with increase; for Rate of increase or decrease: detection intensity relative to 1 at 2 times
Outline: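 EDTA plasma from a healthy subject, cooled within 1 min or after 5+ min, centrifuged 4 °C/3000 rpm/15 min, frozen, then freeze-thawed 2, 4, 6 or 10 times. Methoximated, trimethylsilylated samples run by GC/MS (BPX5 column, EI, MRM). Values are detection intensity relative to 2 freeze-thaw cycles set as 1.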

[4] = GC/MS of serum sample: time from blood collection to centrifugation (Table G); conditions: blood collection to centrifugation; for Rate of increase or decrease: detection intensity relative to 1 at 15 minutes; for Increase or decrease: detection intensity
Outline: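 Blood was held for varying times before centrifugation (room temperature, 3500 rpm, 5 min); serum was frozen, then methoxymated and trimethylsilylated for GC/MS with electron ionization in MRM mode. Values are detection intensities relative to the 15-minute collection-to-centrifugation condition, set as 1.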

[5] = GC/MS of serum sample: number of times of freezing and thawing (Table I); design: key to Rate of increase or decrease / Rate of increase or decrease (first value, increase): detection intensity relative to 2 freeze-thaw cycles = 1; conditions: for Rate of increase or decrease: detection intensity relative to 1 at 2 times
Outline: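 Serum was isolated after centrifugation at room temperature (3500 rpm, 5 min), frozen, and put through 2, 4, 6 or 10 freeze–thaw cycles. Samples were methoxymated and trimethylsilylated, then run by electron-ionization GC/MS in MRM mode on a BPX5 column (60 to 330 °C). Detection intensity is given relative to the 2-cycle sample, set as 1.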

[6] = GC/MS of serum sample: time from centrifugation to isolation (Table H); design: key to Rate of increase or decrease / Rate of increase or decrease (first value, increase): detection intensity relative to 1 at 30 min centrifugation-to-isolation; conditions: for Rate of increase or decrease: detection intensity relative to 1 at 30 minutes, after 1 hour; for Increase or decrease: detection intensity
Outline: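 Blood was centrifuged at room temperature, 3500 rpm, 5 min, and the vessel left at room temperature for 30 min, 1 h or 6 h before serum isolation. Serum was methoxymated, trimethylsilylated and analysed by GC/MS with electron ionization in MRM mode; intensities expressed relative to the 30-min condition (=1).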

[7] = freezing and thawing 4 times vs 2 times
[8] = freezing and thawing 10 times vs 2 times
[9] = freezing and thawing 6 times vs 2 times

Structure (SMILES) | Rate of increase or decrease ([1]; after 4 hours) | Increase or decrease ([1]; after 4 hours vs 15 minutes) | Increase or decrease [2] | Increase or decrease [3, 7] | Rate of increase or decrease (second value, decrease) ([1]; after 4 hours) | Rate of increase or decrease (first value, increase) ([1]; after 4 hours) | Rate of increase or decrease [2] | Rate of increase or decrease ([4]; after 4 hours) | Increase or decrease ([4]; after 4 hours vs 15 minutes) | Increase or decrease [3, 9] | further results
O=C(O)c1cccnc1C(=O)O [Quinolinic acid] | 2.24 | Increase | Different from individual | Different from individual | – | – | – | – | – | – | Rate of increase or decrease (second value, decrease) [2]: 0.41; Rate of increase or decrease (first value, increase) [2]: 1.67; Rate of increase or decrease (second value, decrease) ([3]; freezing and thawing 4 times): 0.68; Rate of increase or decrease (first value, increase) ([3]; freezing and thawing 4 times): 1.70
O=C(CO)[C@H](O)[C@H](O)CO [Ribulose] | – | Different from individual | Increase | Increase | 0.66 | 4.41 | 1.96 | – | – | – | Rate of increase or decrease ([3]; freezing and thawing 4 times): 1.38; Rate of increase or decrease ([4]; after 8 hours): 1.72; Increase or decrease ([4]; after 8 hours vs 15 minutes): Increase; Rate of increase or decrease ([5]; 10 times of freezing and thawing): 0.68; Number of times when compound is affected ([5]; serum sample, GC/MS, detection intensity changed by 30% or more vs 2 times of freezing and thawing): 10 times; Increase or decrease ([5]; serum sample, GC/MS, detection intensity vs 2 times of freezing and thawing): Decrease
OC[C@@H](O)[C@@H](O[C@@H]1O[C@H](CO)[C@H](O)[C@H](O)[C@H]1O)[C@H](O)[C@@H](O)CO [Lactitol] | – | Different from individual | Decrease | – | 0.22 | 3.36 | 0.67 | 3.20 | Increase | – | Rate of increase or decrease ([3]; freezing and thawing 10 times): 1.73; Increase or decrease [3, 8]: Increase; Rate of increase or decrease [6]: 1.60; Increase or decrease ([6]; after 1 hour vs 30 minutes): Increase
O=c1ccn([C@H]2C[C@H](O)[C@@H](CO)O2)c(=O)[nH]1 [2′-Deoxyuridine] | – | – | Decrease | – | – | – | 0.68 | – | – | Different from individual | Rate of increase or decrease ([1]; after 12 hours): 1.43; Increase or decrease ([1]; after 12 hours vs 15 minutes): Increase; Rate of increase or decrease (second value, decrease) ([3]; freezing and thawing 6 times): 0.67; Rate of increase or decrease (first value, increase) ([3]; freezing and thawing 6 times): 1.43
CC(=O)NCCCC[C@H](N)C(=O)O [N6-acetyllysine] | – | – | Decrease | – | – | – | 0.61 | 1.55 | Increase | Decrease | Rate of increase or decrease ([3]; freezing and thawing 6 times): 0.57; Increase or decrease ([6]; after 6 hours vs 30 minutes): Different from individual; Rate of increase or decrease (second value, decrease) ([6]; different from individual to individual, individuals with decrease, relative to 1 at 30 minutes, after 6 hours): 0.58; Rate of increase or decrease (first value, increase) ([6]; different from individual to individual, individuals with increase, relative to 1 at 30 minutes, after 6 hours): 1.71; Rate of increase or decrease ([5]; serum, GC/MS, freezing and thawing 4 times): 0.67; Increase or decrease ([5]; detection intensity, serum, GC/MS, freezing and thawing 4 times vs 2 times): Decrease
CS(=O)(=O)CC[C@H](N)C(=O)O [Methionine sulfone] | 4.98 | Increase | Decrease | Increase | – | – | 0.70 | – | – | – | Rate of increase or decrease ([3]; freezing and thawing 4 times): 1.77
CC(=O)N[C@@H](CO)C(=O)O [N-acetylserine] | – | Different from individual | Different from individual | – | 0.66 | 1.69 | – | – | – | Different from individual | Rate of increase or decrease (second value, decrease) [2]: 0.69; Rate of increase or decrease (first value, increase) [2]: 1.64; Rate of increase or decrease (second value, decrease) ([3]; freezing and thawing 6 times): 0.69; Rate of increase or decrease (first value, increase) ([3]; freezing and thawing 6 times): 1.39; Rate of increase or decrease ([4]; after 12 hours): 1.44; Increase or decrease ([4]; after 12 hours vs 15 minutes): Increase; Rate of increase or decrease [6]: 1.69; Increase or decrease ([6]; after 1 hour vs 30 minutes): Increase
Oc1ccc(O)cc1 [Hydroquinone] | 17.48 | Increase | Decrease | Different from individual | – | – | 0.66 | – | – | – | Rate of increase or decrease (second value, decrease) ([3]; freezing and thawing 4 times): 0.69; Rate of increase or decrease (first value, increase) ([3]; freezing and thawing 4 times): 3.54
O=P(O)(O)OCC(O)CO (centres unmarked) [Glycerol-3-phosphate] | – | Different from individual | Increase | – | 0.32 | 4.90 | – | 1.39 | Increase | Decrease | Rate of increase or decrease ([3]; freezing and thawing 6 times): 0.41
NCCc1c[nH]cn1 [Histamine] | 1.78 | Increase | Decrease | – | – | – | 0.67 | – | – | – | Rate of increase or decrease ([3]; freezing and thawing 10 times): 1.63; Increase or decrease [3, 8]: Increase
